Results: BigSolDB 2.1

Row | solubility (mole fraction) (in n-octanol, 298.15 K) | solubility (mole fraction) (in n-octanol, 303.15 K) | solubility (mole fraction) (in n-octanol, 308.15 K) | solubility (mole fraction) (in n-octanol, 313.15 K) | solubility (mole fraction) (in water, 298.15 K) | solubility (mole fraction) (in water, 303.15 K) | solubility (mole fraction) (in water, 308.15 K) | solubility (mole fraction) (in water, 313.15 K) | SMILES
1 | 1.39e-05 | 1.79e-05 | 2.32e-05 | 3.09e-05 | 4.87e-06 | 5.98e-06 | 7.94e-06 | 1.09e-05 | Nc1ccc(S(=O)(=O)Nc2ncccn2)cc1
2 | 9.49e-05 | 0.00013 | 0.000168 | 0.000206 | 3.25e-05 | 4.33e-05 | 5.92e-05 | 7.35e-05 | Nc1ccc(S(=O)(=O)Nc2nccs2)cc1
